Where two headings read alike, the source gives them in different places. Blank lines part the entries; values can stand above or below the compound they belong to.
Legend:
[1] = cited from earlier work
[2] = Mouse intravenous (IV) pharmacokinetic study of plasma and brain exposure with bioanalysis; format: in vivo; conditions: for Kp / half-life: male, NMRI, iv, 1 mg/kg; for Kp: brain/plasma
Description: A pharmacokinetic study of plasma and brain exposure in mice after IV administration of Example Compound 1 or Comparative Example Compound 1 was carried out following the protocol described in Loryan, I., et al, Pharm Res (2014) 31: 2203-2219. Comparative Example Compound 1 is 2-{2-Fluoro-6-[4-(hydroxymethyl)piperidin-1-yl]pyridin-3-yl}-1H-indol-5-ol, and has the following structure:
The experimental protocol and bioanalysis described in Loryan, I., et al, Pharm Res (2014) 31: 2203-2219 was followed to measure mouse plasma and brain exposure. Table 3 below provides specific details of the mice, sampling, dose, formulation, method and additional information regarding the experiment, and Table 4 below provides further information regarding the sampling in the experiment.

[3] = molecular target: recombinant 0N4R Tau fibrils (Homo sapiens (Human), UniProt P10636); test: 3H-THK5117 competition binding to tau fibrils in vitro; conditions: competition with 3 nM [3H]-THK5117, 0N4R tau fibrils, 1 h, 22° C.; average if run more than once
recombinant 0N4R Tau fibrils, sequence (P10636 other isoform, or with tags, fused parts or gaps): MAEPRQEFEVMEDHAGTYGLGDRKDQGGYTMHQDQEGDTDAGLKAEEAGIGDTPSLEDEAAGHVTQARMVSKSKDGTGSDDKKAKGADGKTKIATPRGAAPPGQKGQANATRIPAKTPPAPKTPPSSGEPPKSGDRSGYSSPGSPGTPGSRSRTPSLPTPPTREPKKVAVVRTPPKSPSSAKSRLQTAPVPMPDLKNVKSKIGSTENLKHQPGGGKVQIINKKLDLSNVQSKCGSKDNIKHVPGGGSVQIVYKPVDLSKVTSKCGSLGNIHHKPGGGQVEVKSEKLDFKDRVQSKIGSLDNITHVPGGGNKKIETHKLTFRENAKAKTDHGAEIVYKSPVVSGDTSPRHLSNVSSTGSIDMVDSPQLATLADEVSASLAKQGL
Description: ^3H-THK5117 Competition Binding to Tau Fibrils In Vitro
Preparation of recombinant 0N4R Tau fibrils was performed as previously described in Morozova, O. A., Biochemistry (2013), Vol., 52(40), pages 6960-6967. Competition binding experiments to 0N4R Tau fibrils were performed by incubating increasing concentrations [10^−10-10^−6 M] of the Example compounds of the invention, or the known tau specific ligand PBB3 (PBB3 was synthesized as previously described in M. Maruyama, et al, Neuron 2013, 79, 1094-1108) or MK6240 (Novandi Chemistry AB), in the presence of 3 nM of the known tau ligand [^3H]-THK5117 (Novandi Chemistry) and 0.2 mM 0N4R tau fibrils in binding buffer (50 mM Tris-HCl, pH 7.4, 0.1% BSA) for 1 h in the dark, and at 22° C. The incubation was terminated by filtration through a Whatman GF/B glass filter (Whatman International, Kent, UK) using a Brandel cell harvester. The filter was then washed rapidly four times with 3 mL of ice-cold wash buffer (5 mM Tris-HCl, 0.25 mM NaCl, 5% EtOH), and equilibrated for 1 h in scintillation vials containing 5 mL of Ultima Gold scintillation fluid before being analysed using a Liquid Scintillation Analyzer.
The results are shown in Table 2 in the column labeled “Tau IC50”. […] Biological Assay Results

[4] = mouse, mouse, IV 1 mg/kg, read-out: Total concentration brain:plasma ratio
[5] = mouse, mouse, IV 1 mg/kg, read-out: Unbound concentration brain:plasma ratio
[6] = mouse, mouse, IV 1 mg/kg, read-out: unbound AUC in brain as % of the plasma AUC
[7] = brain, mouse NMRI male, IV 1 mg/kg, mean n=3
[8] = plasma, mouse NMRI male, IV 1 mg/kg, mean n=3

SMILES: [11CH3]Nc1ccc(/C=C/C=C/c2nc3ccc(O)cc3s2)cn1 [^11C-PBB3]
radiochemical purity after exposure to fluorescent light ([1]; 1 min after exposure): 77%
radiochemical purity after exposure to fluorescent light ([1]; from 10 to 60 min after exposure): approximately 50%

Total concentration AUC ([2]; brain, mouse, IV 1 mg/kg): 15 ng·h/g
Unbound concentration AUC ([2]; brain, mouse, IV 1 mg/kg): 0.030 ng·h/g
Kp [2, 4]: 0.1
Kp [2, 5]: 0.002
Kp [2, 6]: ~0.002
Total concentration AUC ([2]; plasma, mouse, IV 1 mg/kg): 151 ng·h/g
Unbound concentration AUC ([2]; plasma, mouse, IV 1 mg/kg): 14 ng·h/g
SMILES: OCC1CCN(c2ccc(-c3cc4cc(O)ccc4[nH]3)c(F)n2)CC1 [Comparative Example Compound 1, 2-{2-Fluoro-6-[4-(hydroxymethyl)piperidin-1-yl]pyridin-3-yl}-1H-indol-5-ol, reference compound]

IC50 [3]: 1.7 nM
AUCinf [2, 7]: 457.8 ng·h/g
AUClast [2, 7]: 454.6 ng·h/g
Cmax [2, 7]: 1190 ng/g
Tmax [2, 7]: 1.8 min
Total concentration AUC ([2]; brain, mouse, IV 1 mg/kg): 457.8 ng·h/g
Unbound concentration AUC ([2]; brain, mouse, IV 1 mg/kg): 0.09 ng·h/g
half-life ([2]; mouse, brain, brain, following IV dosing, mouse, read-out: elimination half-life (converted)): ~18 min
half-life ([2]; mouse, brain, brain, mouse NMRI male, IV 1 mg/kg, mean n=3, read-out: t1/2 (converted)): 18 min
Kp [2, 4]: 1.7
Kp [2, 5]: 0.56
Kp [2, 6]: ~0.56
half-life ([2]; mouse, plasma, plasma, mouse NMRI male, IV 1 mg/kg, mean n=3, read-out: t1/2 (converted)): 24 min
AUC(0-inf) [2, 8]: 267 ng·h/mL
AUC(0-t) [2, 8]: 264 ng·h/mL
C0 [2, 8]: 884 ng/mL
Cmax [2, 8]: 782 ng/mL
MRT [2, 8]: 18 min
Tmax [2, 8]: 1.8 min
Vd [2, 8]: 1.2 L/kg
clearance [2, 8]: 62.4 mL/min/kg
Total concentration AUC ([2]; plasma, mouse, IV 1 mg/kg): 267.1 ng·h/g
Unbound concentration AUC ([2]; plasma, mouse, IV 1 mg/kg): 0.16 ng·h/g
SMILES: CO[C@H]1CCCN(c2ccc(-c3cc4cc(O)ccc4[nH]3)c(F)n2)C1 [Example Compound 1, 2-{2-Fluoro-6-[(3S)-3-methoxypiperidin-1-yl]pyridin-3-yl}-1H-indol-5-ol]
adverse events in the mice during the study ([2]; mouse, IV 1 mg/kg): No adverse events were observed

IC50 [3]: 31.8 nM
SMILES: CO[C@@H]1CCCN(c2ccc(-c3cc4cc(O)ccc4[nH]3)c(F)n2)C1 [Example Compound 2, 2-{2-Fluoro-6-[(3R)-3-methoxypiperidin-1-yl]pyridin-3-yl}-1H-indol-5-ol]

— patent publication US12304901B2, “Selective ligands for tau aggregates” (Sentonix, Inc., priority 2022, dated 2025)
